Earlier results in US9370574B2, “Composite absorbable/biodegradable rings for controlled drug delivery” (Poly-Med, Inc., priority 2003, dated 2016).

Experiments:
[1] = system: cervical intraepithelial neoplasia (CIN); conditions: collagen sponge in cervical cap
[2] = system: Human Papillomavirus (HPV)-associated lesions of the vulva and vagina; conditions: biweekly doses of 5% cream for six months following ablative treatment
[3] = system: post-irradiation vaginal carcinoma in-situ; conditions: 20% 5-FU over monthly 5-day courses
bacterial vaginosis [4] = system: bacterial vaginosis
bacterial vaginosis [5] = conditions: 5 gm gel (0.75%) twice-daily for 5 days

**Q.** Which results are given for `CC1=C(/C=C/C(C)=C/C=C/C(C)=C/C(=O)O)C(C)(C)CCC1` [RA, all-trans-retinoic acid]?
**A.** complete histologic regression of CIN II ([1]; locally applied daily for 4 days): 43%; treatment effect in severe dysplasia (CIN III) ([1]; locally applied): No treatment effect

**Q.** Which recurrences [2] does the source give for `O=c1[nH]cc(F)c(=O)[nH]1` [Type 5-FU, 5-flurouracil] here?
**A.** The recurrences was 13%.

**Q.** And the initial complete response [3]?
**A.** Its initial complete response is “seven of the eight”.

**Q.** Which “failure rate after one month, high dose” value (bacterial vaginosis [4]; high dose sponge (one gram once-daily for three days)) does the source give for `Cc1ncc([N+](=O)[O-])n1CCO` [metronidazole] here?
**A.** The value was 12%.

**Q.** And the cure rate (bacterial vaginosis [4]; intravaginal sponges, 250 mg twice-daily two days or one gram once-daily three days, after one week)?
**A.** The cure rate was 85%.

**Q.** What about the “failure rate after one month, low dose” value (bacterial vaginosis [4]; low dose sponge (250 mg twice-daily for two days)) of the same compound?
**A.** Its value is 42%.

**Q.** What about the clinical cure rate (bacterial vaginosis [5]; after 9 to 21 days) of the same compound?
**A.** Its clinical cure rate is 87%.

**Q.** What about the recurrence rate (bacterial vaginosis [5]; after one month) of the same compound?
**A.** Its recurrence rate is 15%.
